Consider 16 compounds from patent US20100227935A1, “CLASS OF TERPENE-DERIVED COMPOUNDS HAVING AN ANTIBIOTIC ACTIVITY, COMPOSITIONS CONTAINING THE SAME AND USES THEREOF” (Centre National De La Recherche Scientifique, priority 2006, published 2010).

Assay [1] concerns Staphylococcus aureus H16. In kind it is cell-based. Also: key: R: strain resistant to antibiotic concerned; S: strain sensitive to antibiotic concerned; L strain with intermediate resistance to antibiotic concerned.
Another assay has as its system Staphylococcus aureus H7. The assay can be described thus: MIC / antibiotic susceptibility. Also: key: R: strain resistant to antibiotic concerned; S: strain sensitive to antibiotic concerned; L strain with intermediate resistance to antibiotic concerned. The assay is classed as cell-based.
The next assay relates to Staphylococcus aureus H1. The assay is described as follows: MIC / antibiotic susceptibility. Also: key: R: strain resistant to antibiotic concerned; S: strain sensitive to antibiotic concerned; L strain with intermediate resistance to antibiotic concerned. In kind it is cell-based.
Another assay concerns Staphylococcus aureus H4. The assay can be described thus: MIC / antibiotic susceptibility. In kind it is cell-based.
In a further assay the test system is Staphylococcus aureus H3. The assay is described as follows: MIC / antibiotic susceptibility. In kind it is cell-based.
A further assay relates to Staphylococcus aureus H9. The assay is described as follows: MIC / antibiotic susceptibility. The assay is classed as cell-based.
Assay [2] deals with Staphylococcus aureus H18. The assay can be described thus: MIC / antibiotic susceptibility. Also: key: R: strain resistant to antibiotic concerned; S: strain sensitive to antibiotic concerned; L strain with intermediate resistance to antibiotic concerned. The assay is classed as cell-based.
The subject of assay [3] is C. difficile. As to conditions: molecules in current use or in clinical trials (phase III); cited from earlier work.
The test system of assay [4] is C. difficile. The settings on record: cited from earlier work.

Values after ≈ are worked out from the molar mass of the structure shown.

As to `C[C@@H]1O[C@@H]1P(=O)(O)O` [Fosfomycin], the “Susceptibility of strain to antibiotic” value in assay [1] was “R”; in the assay with Staphylococcus aureus H7 it was “S”; in the assay with Staphylococcus aureus H1, “S”; in the assay on Staphylococcus aureus H4 it was “S”; with Staphylococcus aureus H3, “S”; in the assay with Staphylococcus aureus H9, “S”. Moreover, in assay [2], the “Susceptibility of strain to antibiotic” value is recorded as “R”.

As to `CC(=O)O[C@H]1C[C@@]2(C)[C@@H](C[C@@H](O)[C@H]3[C@@]4(C)CC[C@@H](O)[C@@H](C)[C@@H]4CC[C@@]32C)/C1=C(\CCC=C(C)C)C(=O)O` [Fusidic acid], the “Susceptibility of strain to antibiotic” value was “S” in assay [1]; “S” in the assay on Staphylococcus aureus H7; “S” with Staphylococcus aureus H1; “S” in the assay with Staphylococcus aureus H4; “S” in the assay with Staphylococcus aureus H3; “R” in the assay on Staphylococcus aureus H9. For the same compound, the “Susceptibility of strain to antibiotic” value in assay [2] is given as “S”.

As to `CCc1c(Cl)c(O)c(Cl)c(O)c1C(=O)O[C@H]1[C@H](O)[C@H](OC)[C@H](OC/C2=C\C=C\C[C@H](O)/C(C)=C/[C@H](CC)[C@@H](O[C@@H]3OC(C)(C)[C@@H](OC(=O)C(C)C)[C@H](O)[C@@H]3O)/C(C)=C/C(C)=C/C[C@@H]([C@@H](C)O)OC2=O)O[C@@H]1C` [Lipiarmycin], the “MIC on C. difficile” value with C. difficile [3] was 0.06 to 2 µg/mL.

As to `Cc1ncc([N+](=O)[O-])n1CCO` [Metronidazole], in the assay with C. difficile [4] (first intention treatment of C. difficile infection), the “Patients for whom the drug is inactive” value is 25%. Besides, the Relapses in the assay with C. difficile [4] (treatment of C. difficile infection) is recorded as 25 % of cases. Besides, in the assay with C. difficile [3], the “MIC on C. difficile” value was 1 µg/mL (≈ 5.84 µM).

On to `CC(=O)Oc1ccccc1C(=O)Nc1ncc([N+](=O)[O-])s1` [Nitazoxanide], for which, in the assay with C. difficile [3], the “MIC on C. difficile” value was 0.1 µg/mL (≈ 0.325 µM).

`CCn1cc(C(=O)O)c(=O)c2cc(F)c(N3CCNCC3)cc21` [Norfloxacin]: the “Susceptibility of strain to antibiotic” value is recorded as “R” in assay [1]; “R” with Staphylococcus aureus H7; “S” with Staphylococcus aureus H1; “R” with Staphylococcus aureus H4; “R” in the assay on Staphylococcus aureus H3; “S” in the assay with Staphylococcus aureus H9. For the same compound, the “Susceptibility of strain to antibiotic” value in [2] is recorded as “R”.

On to `CC1COc2c(N3CCN(C)CC3)c(F)cc3c(=O)c(C(=O)O)cn1c23` (stereo not shown) [Ofloxacin], for which the “Susceptibility of strain to antibiotic” value in assay [1] was “R”; in the assay with Staphylococcus aureus H7 it was “R”; in the assay on Staphylococcus aureus H1, “S”; in the assay on Staphylococcus aureus H4 it was “R”; in the assay with Staphylococcus aureus H3 it was “R”; with Staphylococcus aureus H9 it was “S”. Further, in [2], the “Susceptibility of strain to antibiotic” value was “R”.

As to `Cc1onc(-c2ccccc2)c1C(=O)N[C@@H]1C(=O)N2[C@@H]1SC(C)(C)[C@@H]2C(=O)O` [Oxacillin], the “Susceptibility of strain to antibiotic” value was “R” in assay [1]; “S” with Staphylococcus aureus H7; “S” in the assay on Staphylococcus aureus H1; “R” with Staphylococcus aureus H4; “S” in the assay on Staphylococcus aureus H3; “S” in the assay with Staphylococcus aureus H9. In addition, the “Susceptibility of strain to antibiotic” value in assay [2] is reported as “R”.

For the compound `CC1(C)S[C@@H]2[C@H](NC(=O)Cc3ccccc3)C(=O)N2[C@H]1C(=O)O` [Penicillin G], the “Susceptibility of strain to antibiotic” value (in [1]; in the assay with Staphylococcus aureus H7; in the assay with Staphylococcus aureus H1; in the assay on Staphylococcus aureus H4; in the assay with Staphylococcus aureus H3; in the assay on Staphylococcus aureus H9) was “R” in each case. In addition, in assay [2], the “Susceptibility of strain to antibiotic” value was “R”.

On to `CCN1CCN(C(=O)N[C@@H](C(=O)N[C@@H]2C(=O)N3[C@@H]2SC(C)(C)[C@@H]3C(=O)O)c2ccccc2)C(=O)C1=O` [Piperacillin], for which the “Susceptibility of strain to antibiotic” value (in [1]; in the assay with Staphylococcus aureus H7; with Staphylococcus aureus H1; in the assay on Staphylococcus aureus H4; with Staphylococcus aureus H3; with Staphylococcus aureus H9) was “R” each time. Moreover, the “Susceptibility of strain to antibiotic” value in assay [2] was “R”.

As to `CO[C@H]1/C=C/O[C@@]2(C)Oc3c(C)c(O)c4c(O)c(c(/C=N/N5CCN(C)CC5)c(O)c4c3C2=O)NC(=O)/C(C)=C\C=C\[C@H](C)[C@H](O)[C@@H](C)[C@@H](O)[C@@H](C)[C@H](OC(C)=O)[C@@H]1C` [Rifampicin], the “Susceptibility of strain to antibiotic” value in assay [1] was “R”; in the assay with Staphylococcus aureus H7, “S”; in the assay with Staphylococcus aureus H1, “S”; in the assay on Staphylococcus aureus H4 it was “S”; in the assay with Staphylococcus aureus H3, “S”; with Staphylococcus aureus H9, “S”. Moreover, the “Susceptibility of strain to antibiotic” value in assay [2] is recorded as “S”.

Take `CO[C@H]1/C=C/O[C@@]2(C)Oc3c(C)c(O)c4c(O)c(c5c(nc6cc(C)ccn65)c4c3C2=O)NC(=O)/C(C)=C\C=C\[C@H](C)[C@H](O)[C@@H](C)[C@@H](O)[C@@H](C)[C@H](OC(C)=O)[C@@H]1C` [Rifaximin]: the “MIC on C. difficile” value with C. difficile [3] was 0.08 to 0.2 µg/mL.

For `NC[C@H]1O[C@H](O[C@H]2[C@H](O)[C@@H](O[C@H]3O[C@H](CO)[C@@H](O)[C@H](N)[C@H]3O)[C@H](N)C[C@@H]2N)[C@H](N)C[C@@H]1O` [Tobramycin], the “Susceptibility of strain to antibiotic” value is “R” in assay [1]; “S” in the assay with Staphylococcus aureus H7; “S” in the assay with Staphylococcus aureus H1; “R” in the assay with Staphylococcus aureus H4; “S” with Staphylococcus aureus H3; “S” with Staphylococcus aureus H9. For the same compound, the “Susceptibility of strain to antibiotic” value in assay [2] is reported as “R”.

Take `CN[C@H](CC(C)C)C(=O)N[C@H]1C(=O)N[C@@H](CC(N)=O)C(=O)N[C@H]2C(=O)N[C@H]3C(=O)N[C@H](C(=O)N[C@H](C(=O)O)c4cc(O)cc(O)c4-c4cc3ccc4O)[C@H](O)c3ccc(c(Cl)c3)Oc3cc2cc(c3O[C@@H]2O[C@H](CO)[C@@H](O)[C@H](O)[C@H]2O[C@H]2C[C@](C)(N)[C@H](O)[C@H](C)O2)Oc2ccc(cc2Cl)[C@H]1O` [Vancomycin]: the “Susceptibility of strain to antibiotic” value (in assay [1]; with Staphylococcus aureus H7; with Staphylococcus aureus H1; in the assay on Staphylococcus aureus H4; with Staphylococcus aureus H3; in the assay on Staphylococcus aureus H9) was “S” each time. Moreover, in assay [2], the “Susceptibility of strain to antibiotic” value is on record as “R”. Besides, the “MIC on C. difficile” value in the assay on C. difficile [3] was approximately 1 µg/mL (≈ 0.69 µM).

As to Co-trimoxazole, the “Susceptibility of strain to antibiotic” value (in assay [1]; with Staphylococcus aureus H7; in the assay with Staphylococcus aureus H1; in the assay on Staphylococcus aureus H4; in the assay on Staphylococcus aureus H3; with Staphylococcus aureus H9) was “S” each time. For the same compound, in [2], the “Susceptibility of strain to antibiotic” value is listed as “S”.

On to Gentamicin, for which the “Susceptibility of strain to antibiotic” value in [1] is on record as “R”; in the assay with Staphylococcus aureus H7, “S”; in the assay with Staphylococcus aureus H1 it was “S”; with Staphylococcus aureus H4, “S”; in the assay with Staphylococcus aureus H3, “S”; in the assay with Staphylococcus aureus H9, “S”. Besides, the “Susceptibility of strain to antibiotic” value in [2] is recorded as “S”.
